Where two headings read alike, the source gives them in different places.

This is an account of results in US20170334899A1, “AMINO-SUBSTITUTED ISOTHIAZOLES” (Bayer Pharma Aktiengesellschaft, priority 2014, published 2017).

For experiment [1], the system named is human cervical tumor cell line HeLa (ATCC CCL-2). Put plainly: SAC-Formation - Paclitaxel-Induced Assay. The conditions noted are these: 24 h, HeLa cells, paclitaxel 0.05 μM, test range 0.005 μM-20 μM, read-out: IC50 [mol/l] SAC-Formation - Paclitaxel-Induced Assay. Format: cell-based. The method, boiled down:
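HeLa cells incubated overnight at 37° C, then given paclitaxel (0.05 μM final) plus test compound (0.005–20 μM, 0.5% DMSO) together for 24 h at 37° C. Fixed cells stained for phospho-histone H3 Ser10 (mitotic cells) and Hoechst 33342 (cell count); imaging-derived mitotic index fitted by four-parameter Hill equation.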

Another experiment deals with T1, CDK2/CycE (Homo sapiens, UniProt P24941).
T1 construct: GST; purchased ProQinase GmbH (Freiburg, Germany); host or cells: insect cells (Sf9)
Put plainly: CDK2/CycE kinase assay (TR-FRET). The experiment is classed as biochemical. The conditions noted are these: avg, read-out: CDK2 avg (IC50 [mol/l]). The procedure, abridged:
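GST-tagged human CDK2 and CycE from Sf9 cells, preincubated 15 min with compound, then 25 min at 22° C. with 10 μM ATP and 0.75 μM biotinylated Rb-derived peptide (final). Phospho-substrate read by TR-FRET (anti-pRB pSer807/pSer811, Eu anti-mouse IgG, streptavidin-XL665), 665/620 nm ratio, normalised to no-inhibitor and no-enzyme controls.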

As for `Cc1nsc(Nc2cnc3ccccc3n2)c1C(=O)Nc1cccc(C(=O)N2CCOCC2)c1` [Example 52, 3-Methyl-N-[3-(morpholin-4-ylcarbonyl)phenyl]-5-(quinoxalin-2-ylamino)-1,2-thiazole-4-carboxamide], the IC50 in experiment [1] (Homo sapiens, HeLa) was 780 nM; at CDK2/CycE, not below 20000 nM.

As for `Cc1nsc(Nc2cnc3ccccc3n2)c1C(=O)Nc1cccc(C(=O)NC(C)(C)C)c1` [Example 53, N-[3-(tert-Butylcarbamoyl)-phenyl]-3-methyl-5-(quinoxalin-2-ylamino)-1,2-thiazole-4-carboxamide], the IC50 was 1100 nM in experiment [1] (Homo sapiens, HeLa) and not below 20000 nM at CDK2/CycE.

With `Cc1nsc(Nc2cnc3ccccc3n2)c1C(=O)Nc1cccc(C(=O)NCC(=O)OC(C)(C)C)c1` [Example 54, tert-Butyl N-[3-({[3-methyl-5-(quinoxalin-2-ylamino)-1,2-thiazol-4-yl]carbonyl}amino)-benzoyl]glycinate], the IC50 in experiment [1] (Homo sapiens, HeLa) was 1300 nM; at CDK2/CycE, not below 20000 nM.

Regarding `Cc1nsc(Nc2cnc3ccccc3n2)c1C(=O)Nc1cccc(C(=O)N2CCN(C(=O)OC(C)(C)C)CC2)c1` [Example 55, tert-Butyl 4-[3-({[3-methyl-5-(quinoxalin-2-ylamino)-1,2-thiazol-4-yl]carbonyl}amino)-benzoyl]piperazine-1-carboxylate], the IC50 in experiment [1] (Homo sapiens, HeLa) was 3100 nM; on CDK2/CycE, not below 20000 nM.

Take `Cc1nsc(Nc2cnc3ccccc3n2)c1C(=O)Nc1cccc(C(=O)N[C@@H](CCC(N)=O)C(=O)OC(C)(C)C)c1` [Example 56, tert-butyl N^2-[3-({[3-methyl-5-(quinoxalin-2-ylamino)-1,2-thiazol-4-yl]carbonyl}amino)-benzoyl]glutaminate]: the IC50 in experiment [1] (Homo sapiens, HeLa) was 4300 nM; on CDK2/CycE, not below 20000 nM.

With `Cc1nsc(Nc2cnc3ccccc3n2)c1C(=O)Nc1cccc(C(=O)N[C@H](C(=O)OC(C)(C)C)[C@@H](C)OC(C)(C)C)c1` [Example 57, tert-Butyl O-tert-butyl-N-[3-({[3-methyl-5-(quinoxalin-2-ylamino)-1,2-thiazol-4 yl]carbonyl}amino)-benzoyl]threoninate], the IC50 in experiment [1] (Homo sapiens, HeLa) was 1200 nM; at CDK2/CycE, not below 20000 nM.

As for `Cc1nsc(Nc2cnc(C(F)(F)F)cn2)c1C(=O)Nc1ccc(OC[C@H]2CCCN(CCC(F)(F)F)C2)nc1` [Example 378, 3-methyl-5-{[5-(trifluoromethyl)pyrazin-2-yl]amino}-N-(6-{[(3S)-1-(3,3,3-trifluoropropyl)piperidin-3-yl]methoxy}pyridin-3-yl)-1,2-thiazole-4-carboxamide], the IC50 in experiment [1] (Homo sapiens, HeLa) is 29 nM; at CDK2/CycE it was more than 20000 nM.

For the molecule `CCCN1CCC(COc2ccc(NC(=O)c3c(C)nsc3Nc3cnc(C(F)(F)F)cn3)cn2)C(F)(F)C1` (stereo not shown) [Example 394, N-{6-[(3,3-difluoro-1-propylpiperidin-4-yl)methoxy]pyridin-3-yl}-3-methyl-5-{[5-(trifluoromethyl)pyrazin-2-yl]amino}-1,2-thiazole-4-carboxamide], the IC50 is 190 nM in experiment [1] (Homo sapiens, HeLa) and more than 20000 nM at CDK2/CycE.

Consider `Cc1nsc(Nc2cnc(C(F)(F)F)cn2)c1C(=O)Nc1ccc(F)c(OC[C@H]2CCCN(CC(F)F)C2)c1` [Example 400, N-(3-{[(3S)-1-(2,2-difluoroethyl)piperidin-3-yl]methoxy}-4-fluorophenyl)-3-methyl-5-{[5-(trifluoromethyl)pyrazin-2-yl]amino}-1,2-thiazole-4-carboxamide], for which the IC50 was 59 nM in experiment [1] (Homo sapiens, HeLa) and more than 20000 nM on CDK2/CycE.

Consider `Cc1nsc(Nc2cnc(C(F)(F)F)cn2)c1C(=O)Nc1ccc(OCC2CCN(CCC(F)(F)F)CC2(F)F)nc1` (stereo not shown) [Example 402, N-(6-{[3,3-difluoro-1-(3,3,3-trifluoropropyl)piperidin-4-yl]methoxy}pyridin-3-yl)-3-methyl-5-{[5-(trifluoromethyl)pyrazin-2-yl]amino}-1,2-thiazole-4-carboxamide], for which the IC50 in experiment [1] (Homo sapiens, HeLa) is 3400 nM; at CDK2/CycE, more than 20000 nM.

Regarding `Cc1nsc(Nc2cnc(C(F)(F)F)cn2)c1C(=O)Nc1ccc(F)c(OC[C@@H]2CCN(CC(F)F)C2)c1` [Example 403, N-(3-{[(3R)-1-(2,2-difluoroethyl)pyrrolidin-3-yl]methoxy}-4-fluorophenyl)-3-methyl-5-{[5-(trifluoromethyl)pyrazin-2-yl]amino}-1,2-thiazole-4-carboxamide], the IC50 in experiment [1] was 42 nM; in experiment [1] (Homo sapiens, HeLa) it was 27 nM; on CDK2/CycE it was more than 20000 nM.

For the molecule `Cc1nsc(Nc2cnc(C(F)(F)F)cn2)c1C(=O)Nc1ccc(OC[C@H]2CCN(CC(F)(F)F)C2)nc1` [Example 404, 3-Methyl-N-(6-{[(3S)-1-(2,2,2-trifluoroethyl)pyrrolidin-3-yl]methoxy}pyridin-3-yl)-5-{[5-(trifluoromethyl)pyrazin-2-yl]amino}-1,2-thiazole-4-carboxamide], the IC50 in experiment [1] (Homo sapiens, HeLa) was 20 nM; at CDK2/CycE, more than 20000 nM.

As to `CCN1CCC(Oc2ccc(NC(=O)c3c(C)nsc3Nc3cnc(C(F)(F)F)cn3)cn2)C(F)(F)C1` (stereo not shown) [Example 406, N-{6-[(1-Ethyl-3,3-difluoropiperidin-4-yl)oxy]pyridin-3-yl}-3-methyl-5-{[5-(trifluoromethyl)pyrazin-2-yl]amino}-1,2-thiazole-4-carboxamide], the IC50 is 49 nM in experiment [1] (Homo sapiens, HeLa) and more than 20000 nM at CDK2/CycE.

Regarding `Cc1nsc(Nc2cnc(C(F)(F)F)cn2)c1C(=O)Nc1ccc(OCCN2CCC(F)(F)CC2)nc1` [Example 407, N-{6-[2-(4,4-Difluoropiperidin-1-yl)ethoxy]pyridin-3-yl}-3-methyl-5-{[5-(trifluoromethyl)pyrazin-2-yl]amino}-1,2-thiazole-4-carboxamide], the IC50 is 79 nM in experiment [1] (Homo sapiens, HeLa) and more than 20000 nM on CDK2/CycE.

On to `CCCN1C[C@H](F)[C@H](Oc2ccc(NC(=O)c3c(C)nsc3Nc3cnc(C(F)(F)F)cn3)cn2)C1` [Example 408, N-(6-{[(3R,4S)-4-Fluoro-1-propylpyrrolidin-3-yl]oxy}pyridin-3-yl)-3-methyl-5-{[5-(trifluoromethyl)pyrazin-2-yl]amino}-1,2-thiazole-4-carboxamide], for which the IC50 is 47 nM in experiment [1] (Homo sapiens, HeLa) and more than 20000 nM on CDK2/CycE.

As to `Cc1nsc(Nc2cnc(C(F)(F)F)cn2)c1C(=O)Nc1ccc(O[C@@H]2CN(CCC(F)(F)F)C[C@@H]2F)nc1` [Example 409, N-(6-{[(3R,4S)-4-Fluoro-1-(3,3,3-trifluoropropyl)pyrrolidin-3-yl]oxy}pyridin-3-yl)-3-methyl-5-{[5-(trifluoromethyl)pyrazin-2-yl]amino}-1,2-thiazole-4-carboxamide], the IC50 in experiment [1] (Homo sapiens, HeLa) is 39 nM; on CDK2/CycE, more than 20000 nM.

Turning to `Cc1nsc(Nc2cnc(C(F)(F)F)cn2)c1C(=O)Nc1ccc(O[C@@H]2CN(CC(F)(F)F)C[C@@H]2F)nc1` [Example 410, N-(6-{[(3R,4S)-4-Fluoro-1-(2,2,2-trifluoroethyl)pyrrolidin-3-yl]oxy}pyridin-3-yl)-3-methyl-5-{[5-(trifluoromethyl)pyrazin-2-yl]amino}-1,2-thiazole-4-carboxamide], the IC50 in experiment [1] (Homo sapiens, HeLa) is 42 nM; at CDK2/CycE, more than 20000 nM.

In the case of `Cc1nsc(Nc2cnc(C(F)(F)F)cn2)c1C(=O)Nc1ccc(O[C@@H]2CN(CC(F)F)C[C@@H]2F)nc1` [Example 411, N-(6-{[(3R,4S)-1-(2,2-Difluoroethyl)-4-fluoropyrrolidin-3-yl]oxy}pyridin-3-yl)-3-methyl-5-{[5-(trifluoromethyl)pyrazin-2-yl]amino}-1,2-thiazole-4-carboxamide], the IC50 in experiment [1] (Homo sapiens, HeLa) is 39 nM; at CDK2/CycE it was more than 20000 nM.
